Source: the supplement of paper PMC10307832

Assays:
Assay in all cases: relative viability (nuclei count vs DMSO), 5 days (fraction); higher = more cells survive
[1] = compound: CCn1c(-c2nonc2N)nc2c(C#CC(C)(C)O)ncc(OC[C@H]3CCCNC3)c21 + O=C(CCCCCCC(=O)Nc1ccccc1)NO [Vorinostat] (partner 1 µM)
Summary of the method: (§1)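 Values are medians from duplicate plates. Each reflects relative viability, defined as the nuclei count of treated wells over that of vehicle wells. Lung cancer cell lines in 1536-well plates were pin-tool dosed one day after seeding with one drug alone or with a fixed anchor-drug dose plus five library-drug doses (not always all listed) in √10 steps, then fixed, stained and imaged at 4× after 5 days.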

BAM7 + Olaparib = compound: CCOC1=CC=CC=C1N=NC2=C(NN(C2=O)C3=NC(=CS3)C4=CC=CC=C4)C [BAM7] + O=C(c1cc(Cc2n[nH]c(=O)c3ccccc23)ccc1F)N1CCN(C(=O)C2CC2)CC1 [Olaparib] (partner 8 µM)
Summary of the method: as §1

BAM7 + Pemetrexed = compound: CCOC1=CC=CC=C1N=NC2=C(NN(C2=O)C3=NC(=CS3)C4=CC=CC=C4)C [BAM7] + Nc1nc2[nH]cc(CCc3ccc(C(=O)N[C@@H](CCC(=O)O)C(=O)O)cc3)c2c(=O)[nH]1 [Pemetrexed] (partner 0.2 µM)
Summary of the method: as §1

[2] = compound: CCn1c(-c2nonc2N)nc2c(C#CC(C)(C)O)ncc(OC[C@H]3CCCNC3)c21 + CS(=O)(=O)N1CCN(Cc2cc3nc(-c4cccc5[nH]ncc45)nc(N4CCOCC4)c3s2)CC1 [Pictilisib] (partner 1 µM)
Summary of the method: as §1

Cell Line	relative viability ([1]; first compound 0.01 µM)	relative viability ([1]; first compound 0.03162 µM)	relative viability ([1]; first compound 0.1 µM)	relative viability ([1]; first compound 0.3162 µM)	relative viability ([1]; first compound 1 µM)	relative viability (BAM7 + Olaparib; first compound 5 µM)	relative viability (BAM7 + Olaparib; first compound 15.81 µM)	relative viability (BAM7 + Olaparib; first compound 50 µM)	relative viability (BAM7 + Pemetrexed; first compound 5 µM)	relative viability (BAM7 + Pemetrexed; first compound 15.81 µM)	relative viability (BAM7 + Pemetrexed; first compound 50 µM)	relative viability ([2]; first compound 0.01 µM)	relative viability ([2]; first compound 0.03162 µM)	relative viability ([2]; first compound 0.1 µM)	relative viability ([2]; first compound 0.3162 µM)	relative viability ([2]; first compound 1 µM)	relative viability (BAM7 + Olaparib; first compound 0.5 µM)	relative viability (BAM7 + Pemetrexed; first compound 0.5 µM)
NCI-H358	0.766	0.691	0.787	0.629	0.662	0.535	0.547	0.608	0.177	0.166	0.159	0.332	0.364	0.364	0.318	0.32		
NCI-H441	0.786	0.85	0.937	0.614	0.663	0.523	0.561	0.574	0.252	0.277	0.242	0.472	0.494	0.522	0.486	0.466	0.76	0.299
NCI-H460	0.722	0.857	0.757	0.64	0.767	0.438	0.327	0.344	0.0614	0.0597	0.0573	0.426	0.314	0.203	0.306	0.203	0.537	0.0639
NCI-H520	0.706	0.711	0.585	0.543	0.5	0.432	0.342	0.344	0.776	0.626	0.569	0.332	0.345	0.249	0.241	0.272	0.401	0.696
NCI-H596	0.569		0.553	0.58	0.633	0.625	0.636	0.697	0.498	0.452	0.559	0.398	0.344	0.366	0.377	0.436	0.665	0.544
NCI-H647	0.616	0.491	0.603	0.358	0.587	0.67	0.549	0.524	0.2	0.188	0.17	0.366	0.468	0.23	0.368	0.44	0.711	0.168
NCI-H650	0.435	0.384	0.393	0.423	0.396	0.363	0.381	0.368	0.979	0.987	1	0.867	0.96	0.968	0.521	0.758	0.424	1.03
NCI-H661	0.787	0.788	0.788	0.742	0.735	0.855	0.716	0.725	0.973	0.921	0.917	0.368	0.564	0.299	0.385	0.401	0.796	0.949
